Results published in the NIST ThermoML archive (doi:10.1021/acs.jced.8b01044).
Numbers after ± are expanded uncertainties.

Columns and labels:
[1] = Crystal; DSC
[2] = Molar enthalpy of transition or fusion; settings: Crystal; DSC

| SMILES | Triple point temperature [1] | Molar enthalpy of transition or fusion [2] |
| --- | --- | --- |
| CCCCCCCCCCCCCCCCCC(=O)O [octadecanoic acid] | 344.08 ± 0.93 K | 14.5 ± 0.86 kcal/mol |
| CCCCCCCCCCCC(=O)O [dodecanoic acid] | 317.71 ± 0.93 K | 8.54 ± 0.598 kcal/mol |
| CCCCCCCCCCCCCCCC(=O)O [hexadecanoic acid] | 336.13 ± 0.93 K | 12.1 ± 0.765 kcal/mol |
